Active and inactive are the calls of the source. No cut-off for these calls is given here.
Columns and labels:
[1] = Hepatotoxicity in zymosan-induced rat arthritis model assessed as effect on sinusoids arrangement at 215 mg/kg, ig administered once daily for 7 days by hematoxylin-eosin staining based histological analysis; format: toxicity, organism-based, Liver; details: in vivo, po, 168 h, time 7 day
[2] = Hepatotoxicity in zymosan-induced rat arthritis model assessed as change in shape of liver portal tracts at 215 mg/kg, ig administered once daily for 7 days by hematoxylin-eosin staining based histological analysis; format: toxicity, organism-based; details: in vivo, po, 168 h, time 7 day
[3] = Hepatotoxicity in zymosan-induced rat arthritis model assessed as change in hepatocyte shape at 215 mg/kg, ig administered once daily for 7 days by hematoxylin-eosin staining based histological analysis; format: toxicity, organism-based, Liver; details: in vivo, po, 168 h, time 7 day
[4] = Hepatotoxicity in zymosan-induced rat arthritis model assessed as change in hepatocyte cytoplasmic appearance at 215 mg/kg, ig administered once daily for 7 days by hematoxylin-eosin staining based histological analysis; format: toxicity, organism-based, Liver; details: in vivo, po, 168 h, time 7 day
[5] = system: Rattus norvegicus; experiment: Antipyretic activity against LPS-induced polyphasic febrile response in rats assessed as suppression of rise in core body temperature at 215 mg/kg, po treated 40 mins prior to LPS addition and measured after 10 mins; format: functional, organism-based; details: time 50.0 min
[6] = system: Rattus norvegicus; experiment: Antipyretic activity against LPS-induced polyphasic febrile response in rats assessed as suppression of rise in core body temperature at 215 mg/kg, po treated 40 mins prior to LPS addition and measured after 160 mins relative to control; format: functional; details: time 200 min, 3.333 h
[7] = system: Rattus norvegicus; experiment: Antinociceptive activity in zymosan-induced rat model of thermal nociceptive hypersensitivity assessed as nociceptive response inhibition at 215 mg/kg, ig administered once daily for 7 days and measured 1 hr post-zymosan challenge on day 7 by hot-plate test (reference value: -42.4%); format: functional; details: po, 168 h, time 7 day
[8] = Hepatotoxicity in zymosan-induced rat arthritis model assessed as effect on sinusoids elongation at 215 mg/kg, ig administered once daily for 7 days by hematoxylin-eosin staining based histological analysis; format: toxicity, organism-based, Liver; details: in vivo, po, 168 h, time 7 day
[9] = Hepatotoxicity in zymosan-induced rat arthritis model assessed as disruption of hepatocyte membrane at 215 mg/kg, ig administered once daily for 7 days by hematoxylin-eosin staining based histological analysis; format: toxicity, organism-based, Liver; details: in vivo, po, 168 h, time 7 day
[10] = Hepatotoxicity in zymosan-induced rat arthritis model assessed as appearance of vacuoles in hepatocyte cytoplasm at 215 mg/kg, ig administered once daily for 7 days by hematoxylin-eosin staining based histological analysis; format: toxicity, organism-based, Liver; details: in vivo, po, 168 h, time 7 day
[11] = system: Rattus norvegicus; experiment: Antipyretic activity against LPS-induced polyphasic febrile response in rats assessed as change in core body temperature at 215 mg/kg, po treated 40 mins prior to LPS addition and measured after 160 mins during phase 1 (reference value: 0.85 deg C); format: functional, organism-based; details: time 200.0 min
[12] = Hepatotoxicity in zymosan-induced rat arthritis model assessed as change in hepatocyte nucleus size at 215 mg/kg, ig administered once daily for 7 days by hematoxylin-eosin staining based histological analysis; format: toxicity, organism-based, Liver; details: in vivo, po, 168 h, time 7 day
[13] = Hepatotoxicity in zymosan-induced rat arthritis model assessed as change in hepatocyte karyoplasm at 215 mg/kg, ig administered once daily for 7 days by hematoxylin-eosin staining based histological analysis; format: toxicity, organism-based, Liver; details: in vivo, po, 168 h, time 7 day
[14] = Hepatotoxicity in zymosan-induced rat arthritis model assessed as effect on general architecture of liver at 215 mg/kg, ig administered once daily for 7 days by hematoxylin-eosin staining based histological analysis; format: toxicity, organism-based; details: in vivo, po, 168 h, time 7 day
[15] = Hepatotoxicity in zymosan-induced rat arthritis model assessed as effect on beam structure of liver at 215 mg/kg, ig administered once daily for 7 days by hematoxylin-eosin staining based histological analysis; format: toxicity, organism-based; details: in vivo, po, 168 h, time 7 day
[16] = Hepatotoxicity in zymosan-induced rat arthritis model assessed as change in shape of liver central veins at 215 mg/kg, ig administered once daily for 7 days by hematoxylin-eosin staining based histological analysis; format: toxicity, organism-based; details: in vivo, po, 168 h, time 7 day
[17] = system: Rattus norvegicus; experiment: Antipyretic activity against LPS-induced polyphasic febrile response in rats assessed as return of body temperature to background value at 215 mg/kg, po treated 40 mins prior to LPS addition and measured after 190 mins; format: functional, organism-based; details: time 230.0 min
[18] = system: Rattus norvegicus; experiment: Antinociceptive activity in zymosan-induced rat arthritis model assessed as nociceptive response inhibition at 215 mg/kg, ig administered once daily for 7 days and measured 1 hr post-zymosan challenge on day 7 by Randall-Selitto test (reference value: -34.6%); format: functional; details: po, 168 h, time 7 day
[19] = Hepatotoxicity in zymosan-induced rat arthritis model assessed as effect on sinusoids arrangement at 180 mg/kg, ig administered once daily for 7 days by hematoxylin-eosin staining based histological analysis; format: toxicity, organism-based, Liver; details: in vivo, po, 168 h, time 7 day
[20] = Hepatotoxicity in zymosan-induced rat arthritis model assessed as change in shape of liver portal tracts at 180 mg/kg, ig administered once daily for 7 days by hematoxylin-eosin staining based histological analysis; format: toxicity, organism-based; details: in vivo, po, 168 h, time 7 day
[21] = Hepatotoxicity in zymosan-induced rat arthritis model assessed as disruption of hepatocyte membrane at 180 mg/kg, ig administered once daily for 7 days by hematoxylin-eosin staining based histological analysis; format: toxicity, organism-based, Liver; details: in vivo, po, 168 h, time 7 day
[22] = system: Rattus norvegicus; experiment: Antinociceptive activity in zymosan-induced rat model of thermal nociceptive hypersensitivity assessed as nociceptive response inhibition at 180 mg/kg, ig administered once daily for 7 days and measured 1 hr post-zymosan challenge on day 7 by hot-plate test (reference value: -42.4%); format: functional; details: po, 168 h, time 7 day
[23] = system: Rattus norvegicus; experiment: Antipyretic activity against LPS-induced polyphasic febrile response in rats assessed as suppression of rise in core body temperature at 180 mg/kg, po treated 40 mins prior to LPS addition and measured after 10 mins; format: functional, organism-based; details: time 50.0 min
[24] = Hepatotoxicity in zymosan-induced rat arthritis model assessed as appearance of vacuoles in hepatocyte cytoplasm at 180 mg/kg, ig administered once daily for 7 days by hematoxylin-eosin staining based histological analysis; format: toxicity, organism-based, Liver; details: in vivo, po, 168 h, time 7 day
[25] = Hepatotoxicity in zymosan-induced rat arthritis model assessed as change in hepatocyte cytoplasmic appearance at 180 mg/kg, ig administered once daily for 7 days by hematoxylin-eosin staining based histological analysis; format: toxicity, organism-based, Liver; details: in vivo, po, 168 h, time 7 day
[26] = system: Rattus norvegicus; experiment: Antipyretic activity against LPS-induced polyphasic febrile response in rats assessed as suppression of rise in core body temperature at 180 mg/kg, po treated 40 mins prior to LPS addition and measured after 160 mins relative to control; format: functional; details: time 200 min, 3.333 h
[27] = system: Rattus norvegicus; experiment: Antipyretic activity against LPS-induced polyphasic febrile response in rats assessed as change in core body temperature at 180 mg/kg, po treated 40 mins prior to LPS addition and measured after 160 mins during phase 1 (reference value: 0.85 deg C); format: functional, organism-based; details: time 200.0 min
[28] = Hepatotoxicity in zymosan-induced rat arthritis model assessed as change in hepatocyte nucleus size at 180 mg/kg, ig administered once daily for 7 days by hematoxylin-eosin staining based histological analysis; format: toxicity, organism-based, Liver; details: in vivo, po, 168 h, time 7 day
[29] = system: Rattus norvegicus; experiment: Antipyretic activity against LPS-induced polyphasic febrile response in rats assessed as suppression of rise in core body temperature at 180 mg/kg, po treated 40 mins prior to LPS addition and measured after 200 mins; format: functional, organism-based; details: time 240.0 min
[30] = Hepatotoxicity in zymosan-induced rat arthritis model assessed as change in shape of liver central veins at 180 mg/kg, ig administered once daily for 7 days by hematoxylin-eosin staining based histological analysis; format: toxicity, organism-based; details: in vivo, po, 168 h, time 7 day
[31] = Hepatotoxicity in zymosan-induced rat arthritis model assessed as change in hepatocyte shape at 180 mg/kg, ig administered once daily for 7 days by hematoxylin-eosin staining based histological analysis; format: toxicity, organism-based, Liver; details: in vivo, po, 168 h, time 7 day
[32] = system: Rattus norvegicus; experiment: Antinociceptive activity in zymosan-induced rat arthritis model assessed as nociceptive response inhibition at 180 mg/kg, ig administered once daily for 7 days and measured 1 hr post-zymosan challenge on day 7 by Randall-Selitto test (reference value: -34.6%); format: functional; details: po, 168 h, time 7 day
[33] = Hepatotoxicity in zymosan-induced rat arthritis model assessed as effect on general architecture of liver at 180 mg/kg, ig administered once daily for 7 days by hematoxylin-eosin staining based histological analysis; format: toxicity, organism-based; details: in vivo, po, 168 h, time 7 day
[34] = Hepatotoxicity in zymosan-induced rat arthritis model assessed as change in hepatocyte karyoplasm at 180 mg/kg, ig administered once daily for 7 days by hematoxylin-eosin staining based histological analysis; format: toxicity, organism-based, Liver; details: in vivo, po, 168 h, time 7 day
[35] = Hepatotoxicity in zymosan-induced rat arthritis model assessed as effect on sinusoids elongation at 180 mg/kg, ig administered once daily for 7 days by hematoxylin-eosin staining based histological analysis; format: toxicity, organism-based, Liver; details: in vivo, po, 168 h, time 7 day
[36] = Hepatotoxicity in zymosan-induced rat arthritis model assessed as effect on beam structure of liver at 180 mg/kg, ig administered once daily for 7 days by hematoxylin-eosin staining based histological analysis; format: toxicity, organism-based; details: in vivo, po, 168 h, time 7 day

## CCCCCCCCCCCCCCCC(=O)Nc1ccc(OCC(=O)O)cc1
[1]
  Activity: Non-toxic
[2]
  Activity: Non-toxic
[3]
  Activity: Non-toxic
[4]
  Activity: Non-toxic
[5]
  Activity: Active
[6]
  fold change (FC): 3
[7]
  inhibition in vivo at 215 mg/kg: 42.2%
[8]
  Activity: Non-toxic
[9]
  Activity: Non-toxic
[10]
  Activity: Non-toxic
[11]
  ΔTm: 0.28 °C
[12]
  Activity: Non-toxic
[13]
  Activity: Non-toxic
[14]
  Activity: Non-toxic
[15]
  Activity: Non-toxic
[16]
  Activity: Non-toxic
[17]
  Activity: Active
[18]
  inhibition in vivo at 215 mg/kg: 21.7%

## CCCCCCCC(=O)Nc1ccc(OCC(=O)NCCO)cc1
[19]
  Activity: Non-toxic
[20]
  Activity: Non-toxic
[21]
  Activity: Non-toxic
[22]
  inhibition in vivo at 180 mg/kg: 12.3%
[23]
  Activity: Active
[24]
  Activity: Non-toxic
[25]
  Activity: Non-toxic
[26]
  fold change (FC): 3
[27]
  ΔTm: 0.28 °C
[28]
  Activity: Non-toxic
[29]
  Activity: Active
[30]
  Activity: Non-toxic
[31]
  Activity: Non-toxic
[32]
  inhibition in vivo at 180 mg/kg: 48.1%
[33]
  Activity: Non-toxic
[34]
  Activity: Non-toxic
[35]
  Activity: Non-toxic
[36]
  Activity: Non-toxic

— ChEMBL document CHEMBL6114949, “Synthesis and physiological effects of new 4-aminophenol derivatives as paracetamol analogues” (Bioorg Med Chem Lett, 2025)
